The source of these data is patent US11680082B2, “Conjugates of montelukast and peptides” (ENLITISA (SHANGHAI) PHARMACEUTICAL CO., LTD, priority 2018, dated 2023).

As usually defined, the IC50 is the concentration needed to halve the response being measured.

Assay [1] concerns xylene induced ear swelling. To be noted: hydrogel 0.5 mg/g, 40 μL on right ear. As to the method:
Essentially the same protocol to that described in Example 5 above was carried out on 15 healthy male BALB/c mice, using Compounds J (see Example 40 above) as test compound. The mice were randomly divided into 3 groups as described in Table 20 below, with 5 mice in each group.
All excipients were obtained from Sinopharm Chemical Reagent Co. Ltd. The gel was made up with water for injection.
Dexamethasone acetate cream (DEX cream; 5 mg of dexamethasone in 10 g of cream; Fuyuan Pharmaceutical Co. Ltd., Anhui, China) was used as a positive control. 40 μL of the various treatments drugs were applied to the right ear of each group.

Assay [2] deals with full thickness skin wound. Briefly: Acute wound model II. It counts as in vivo, C57BL/6 mice. Conditions: topical once daily Day 0 to Day 7. Here is the method: A similar experiment with essentially the same protocol to that described in Example 6 above was carried out on 6 to 8 week-old male C57BL/6 mice, EMS skin biopsy punch with a 12 mm diameter was used to make two round wounds on the midline of the back. The two circles were tangential to each other and the skin between the circles was cut along the upper and lower tangents. Scissors were used to trim the wound. The wound was an oval shape. […] The model group was given same amount of normal saline. [table]

The target in a further assay is T1, CysLTR1 (Homo sapiens, UniProt Q9Y271).
T1 construct: expressed in transfected cells; host or cells: HEK293
T1 sequence (Q9Y271 1-337): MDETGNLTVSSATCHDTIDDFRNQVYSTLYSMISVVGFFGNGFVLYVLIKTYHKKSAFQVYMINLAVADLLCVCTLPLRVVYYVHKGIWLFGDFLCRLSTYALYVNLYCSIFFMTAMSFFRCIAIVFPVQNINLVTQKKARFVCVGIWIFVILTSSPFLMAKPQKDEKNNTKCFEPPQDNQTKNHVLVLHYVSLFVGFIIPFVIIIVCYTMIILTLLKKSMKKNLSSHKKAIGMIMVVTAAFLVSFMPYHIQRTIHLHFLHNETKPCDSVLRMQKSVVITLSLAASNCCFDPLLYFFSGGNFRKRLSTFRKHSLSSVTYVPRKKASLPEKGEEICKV
The experiment in a line: In vitro CysLTR1 FLIPR antagonist test. Conditions: CYSLTR1/HEK293 cell line, Fluo-4 calcium assay. It counts as cell-based.

In assay [3] the test system is bleomycin-induced lung fibrosis. Briefly: Idiopathic pulmonary fibrosis (IPF) model in rats (bleomycin). Conditions: score, 28 days. Type of assay: in vivo, SD rats. Here is the method: 60 adult SD rats (30 male, 30 female) were purchased from Zhejiang Experimental Animal Center, China. Animals were housed at between 21 and 26° C. and at between 40 and 70% relative humidity with free access to food and water.
The rats were anaesthetized and placed on an operating table in the supine position, to expose the trachea. Bleomycin (5 mg/kg, Bleomycin Hydrochloride for Injection, Haizheng Pfizer Pharmaceutical Co., Ltd.) and saline solution were injected into the trachea through the gap between the tracheal cartilage rings.
The sham-operation group was given an equal volume of normal saline instead of bleomycin. The rats were lifted vertically immediately after administration and were rotated to allow bleomycin to evenly disperse. […]
After 28 days of administration, rats were anesthetized by intraperitoneal injection of chloral hydrate and then sacrificed. […] The lung wet weight was weighed, and the lung coefficient was calculated (lung wet weight/rat weight×1000) and are shown in Table 18 below. […]
The fixed lung tissue was embedded in paraffin and sequential 4 μm sections were stained with haematoxylin-eosin (HE) and modified Masson's trichrome. Fibrotic lung injury was assessed morphologically by semiquantitative parameters. All morphological changes were scored according to the severity of damages. […] No lesion was scored as 0. […]

Assay [4] deals with full thickness skin wound. The experiment in a line: Acute wound model I. Type of assay: in vivo, C57BL/6 mice. To be noted: lower dose, Day 4. As to the method: 6-8 weeks old male C57BL/6 mice were supplied by Changzhou Cvens Experimental Animal Co. Ltd. Prior to any experiments being conducted, mice were housed under standardized conditions (at a constant temperature or 22±2° C., with alternating 12 hour periods of light and darkness), and were fed on a standard mouse diet with water, for about a week.
General anesthesia was induced using intraperitoneal 3% chloral hydrate (Sinopharm Chemical Reagent Co., Ltd.; 1 mL/10 g of body weight). The hair on the back was shaved by a baby hair shaver and depilated with cream. The skin area was wiped and sterilized with 75% alcohol twice.
EMS skin biopsy punch (Electron Microscopy Sciences, P.O. Box 550, 1560 Industry Road, Hatfield, Pa. 19440) with an 18 mm diameter was used to make a round wound on the midline of the back. Full thickness skin was removed, and the depth reached the fascia. The wounds left open without suture.
Different drugs were administrated topically at 50 μL/wound, once daily from Day 0 to Day 7. The model group was given same amount of normal saline.
Compound B was obtained as a powder from GL Biochem, and was prepared as described in Example 2 above). Ala-Lys-Pro-Ser-Tyr-Hyp-Hyp-Thr-DOPA-Lys (Compound 2; SEQ ID No: 4) was obtained as a powder from GL Biochem, and was prepared essentially as described in Example 2 above, but without coupling montelukast at the end. […]

The subject of a further assay is ammonia induced cough. The experiment in a line: Antitussive experiment, ammonia induced cough method. Conditions: 10 mg/kg intragastric. It counts as in vivo, mice. Here is the method:
60 mice were randomly divided into 5 groups according to their body weight: CMC-Na negative control group, dextromethorphan hydrobromide positive control group and high, medium and low doses (of Compound A, Example 1) groups. Each group contained 12 mice, 6 males and 6 females.
The test drug was administered via atomization inhalation (0.15 mL/min) for 1 min, once daily for 5 days. The positive control drug was administered once daily by intragastric administration at 10 mg/kg for 5 days.
The mice were placed in an inverted beaker 1, 2, and 4 hours after the last drug administration (either Compound A or the positive control drug). 1 mL of aqueous ammonia (25.0 to 28.0%) was placed on top of a boiling water bath and was evaporated into the beaker. The mice were stimulated by ammonia vapor for a predetermined time of 63.1, 50.1, 39.8, 31.6, 25.1, 20.0, 15.9 or 12.6 seconds. The difference in the logarithm of two adjacent stimulating times was set at 0.1, and being 1.8, 1.7, 1.6, 1.5, 1.4, 1.3, 1.2 and 1.1. The mice were then quickly moved to a bell jar. The number of coughs within 1 minute was detected with a stethoscope. Typical coughs occurring three or more times in one minute are called ‘cough’ and those occurring less than three times in one minute are ‘cough free’.
The ammonia stimulation time for the next mouse was determined according to the principle of the sequential method, i.e. if the first mouse was ‘coughing’, the next mouse was stimulated for a shorter period of time. Conversely, if the first mouse was ‘coughless’, the next mouse was stimulated for a longer period of time.
The EDT50 was defined as the ammonia stimulating time at which half mice developed a “cough” and calculated by the equation: EDT50=lg^−1c/n (c equals the […], r is the number of animals in each stimulating time group, x is the logarithm of stimulation time and n was the number of animals in each group).
Where R1=(EDT50 in treatment group/EDT50 in control group)×100%, R>130% indicates an antitussive effect. R>150% indicates a strong antitussive effect.

Where a name gives a salt, the structure may show the parent alone. Non-standard residues stand in square brackets, D forms with d. Residues, ends and D or L forms follow the SMILES beside them. No end group written: not given here. *: point of attachment. X2 = CC(C)(O)c1ccccc1CC[C@@H](SCC1(CC(=O)*)CC1)c1cccc(/C=C/c2ccc3ccc(Cl)cc3n2)c1; Dopa = N[C@@H](Cc1ccc(O)c(O)c1)C(=O)O; Hyp = O=C(O)[C@@H]1C[C@@H](O)CN1

Method for CysLTR1: 10 different concentrations were tested in duplicate for each compound.
A CYSLTR1/HEK293 cell line was used. The cells were prepared and 20 μL of the cell suspension were added to the 384-well plates (20K/well; poly-D-Lysine protein coating plate, Greiner #781946). The plate was placed at 37° C. in a 5% CO2 incubator overnight.
A probenecid in FLIPR assay buffer was prepared from the relevant starter pack (Cat. no. F10471): A 250 mM stock solution of water-soluble probenecid was prepared by adding 1 mL of Fluo-4 Direct™ calcium assay buffer to 77 mg vials containing probenecid (Component B for Cat. nos. F10471). 10 mL of Fluo-4 Direct™ calcium assay buffer and 200 μL of the 250 mM probenecid stock solution was added to one bottle of Fluo-4 Direct™ calcium reagent (Component A). This 2× Fluo-4 Direct™ calcium reagent loading solution was sufficient for two microplates. The solution was vortexed allowed to sit for 5 minutes (protected from light), to ensure that the reagent was completely dissolved. The reagent was prepared fresh each day
All of the compounds were dissolved and serially diluted in Fluo-4 Direct™ calcium assay buffer (without probenecid). […] Fluorescence was measured using the instrument settings appropriate for excitation at 494 nm and emission at 516 nm.
The data were analysed using Prism (GraphPad Software, USA) and IC50s calculated for each compound.

In the case of “Montelukast-Ala-Lys-Pro-Ser-Tyr-Hyp-Hyp-Thr-Tyr-Hyp-Lys [Compound J]”, the “edema caused by acute inflammation (ear swelling)” value in assay [1] is listed as “very good effect on eliminating the edema caused by acute inflammation”. As for “Montelukast Styrene-Ala-Lys-Pro-pSer-Tyr-Hyp-Hyp-Thr-Tyr-Lys [Compound C]”, the unhealed wound rate entry in assay [2] is “comparable effects on promoting the wound healing”.

As to `C=C(C)c1ccccc1CC[C@@H](SCC1(CC(=O)O)CC1)c1cccc(/C=C/c2ccc3ccc(Cl)cc3n2)c1` [montelukast styrene], on CysLTR1 (Example 37), the IC50 stood at 159 nM. Take `C[C@H](NC(=O)CC1(CS[C@H](CCc2ccccc2C(C)(C)O)c2cccc(/C=C/c3ccc4ccc(Cl)cc4n3)c2)CC1)C(=O)N[C@@H](CCCCN)C(=O)N1CCC[C@H]1C(=O)N[C@@H](CO)C(=O)N[C@@H](Cc1ccc(O)cc1)C(=O)N1C[C@H](O)C[C@H]1C(=O)N[C@H](C(=O)N[C@@H](Cc1ccc(O)cc1)C(=O)N1C[C@H](O)C[C@H]1C(=O)N[C@@H](CCCCN)C(=O)O)[C@@H](C)O` [Compound G, Montelukast-Ala-Lys-Pro-Ser-Tyr-Hyp-Thr-Tyr-Hyp-Lys] (X2-AKPSY[Hyp]TY[Hyp]K-OH): the IC50 on CysLTR1 (repeat of Example 38) was 99.5 nM. Take `Cc1ccc(=O)n(-c2ccccc2)c1` [pirfenidone]: in assay [3] (collagen deposition in pulmonary interstitium), the “Masson evaluation Mean” value stood at 2.50. Moreover, in assay [3] (sum of degree of fibrosis and inflammation), the “HE evaluation Mean” value worked out at 5.50.

Regarding “Ala-Lys-Pro-Ser-Tyr-Hyp-Hyp-Thr-DOPA-Lys (AKPSY[Hyp][Hyp]T[Dopa]K; not fully specified; printed as Ala-Lys-Pro-Ser-Tyr-Hyp-Hyp-Thr-DOPA-Lys) [Compound 2]”, the “Hyp content in wound tissue” value in assay [4] is “show effects at early stage”. Regarding `COc1ccc2c(c1)[C@]13CCCC[C@@H]1[C@H](C2)N(C)CC3` [positive, dextromethorphan hydrobromide], the figures for the EDT50/s with ammonia induced cough (1 h after administration), with ammonia induced cough (2 h after administration) and in the assay on ammonia induced cough (4 h after administration) were 50.1 s, 44.7 s and 41.4 s, respectively. Further, the R1/% in the assay with ammonia induced cough (1 h after administration) is on record as 241.7%; with ammonia induced cough (2 h after administration), 207.3%; in the assay with ammonia induced cough (4 h after administration), 184.8%.
